{"source": "ChEMBL document CHEMBL5696442", "about": "“Discovery of type II inhibitors of TGFβ-activated kinase 1 (TAK1) and mitogen-activated protein kinase kinase kinase kinase 2 (MAP4K2)” (J Med Chem, 2015)", "key": {"[1]": {"biological_target": "Serine/threonine-protein kinase B-raf (Homo sapiens, UniProt P15056)", "sequence (P15056 whole entry)": "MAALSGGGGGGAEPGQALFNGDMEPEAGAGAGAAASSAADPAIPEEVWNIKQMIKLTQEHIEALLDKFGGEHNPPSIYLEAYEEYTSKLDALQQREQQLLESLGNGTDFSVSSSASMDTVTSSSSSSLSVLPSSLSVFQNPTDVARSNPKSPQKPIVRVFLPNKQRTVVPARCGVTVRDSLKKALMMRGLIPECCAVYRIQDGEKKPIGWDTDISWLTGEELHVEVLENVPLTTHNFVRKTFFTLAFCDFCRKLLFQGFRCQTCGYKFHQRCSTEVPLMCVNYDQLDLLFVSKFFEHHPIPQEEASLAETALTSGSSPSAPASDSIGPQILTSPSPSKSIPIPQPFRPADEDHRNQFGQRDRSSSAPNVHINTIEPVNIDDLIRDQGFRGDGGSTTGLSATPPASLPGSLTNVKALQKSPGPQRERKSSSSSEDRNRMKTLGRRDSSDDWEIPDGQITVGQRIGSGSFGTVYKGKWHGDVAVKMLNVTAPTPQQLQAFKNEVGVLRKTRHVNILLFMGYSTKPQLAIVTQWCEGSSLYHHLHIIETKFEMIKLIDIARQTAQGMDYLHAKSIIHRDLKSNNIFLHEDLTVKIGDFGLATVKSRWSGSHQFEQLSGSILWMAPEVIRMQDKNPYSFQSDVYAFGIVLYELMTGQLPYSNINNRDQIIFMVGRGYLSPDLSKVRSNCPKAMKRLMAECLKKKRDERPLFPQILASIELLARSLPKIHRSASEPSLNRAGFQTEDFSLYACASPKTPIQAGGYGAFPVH", "assay": "Inhibition of BRAF Lys2 labeling site in human Huh-7 cell lysate at 1 uM by KiNativ Profiling analysis relative to control", "format": "subcellular"}, "[2]": {"biological_target": "Casein kinase I isoform delta (Homo sapiens) (UniProt P48730)", "sequence (P48730 whole entry, looked up, canonical isoform)": "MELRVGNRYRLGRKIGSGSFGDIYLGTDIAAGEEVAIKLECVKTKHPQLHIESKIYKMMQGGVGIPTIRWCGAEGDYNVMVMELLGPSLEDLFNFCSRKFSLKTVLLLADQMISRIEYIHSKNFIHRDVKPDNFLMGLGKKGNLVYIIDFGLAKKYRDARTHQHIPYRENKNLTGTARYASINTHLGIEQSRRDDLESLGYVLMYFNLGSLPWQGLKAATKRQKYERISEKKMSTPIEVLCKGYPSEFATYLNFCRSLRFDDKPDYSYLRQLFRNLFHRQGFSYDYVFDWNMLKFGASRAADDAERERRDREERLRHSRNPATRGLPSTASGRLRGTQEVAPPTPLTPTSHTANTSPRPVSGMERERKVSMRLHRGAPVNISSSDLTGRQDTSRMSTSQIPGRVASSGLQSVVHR", "assay": "Inhibition of CK1delta Lys2 labeling site in human Huh-7 cell lysate at 1 uM by KiNativ Profiling analysis relative to control", "format": "subcellular"}, "[3]": {"biological_target": "T1, Serine/threonine-protein kinase ULK3 (Homo sapiens) (UniProt Q6PHR2)", "T1 sequence (whole entry)": "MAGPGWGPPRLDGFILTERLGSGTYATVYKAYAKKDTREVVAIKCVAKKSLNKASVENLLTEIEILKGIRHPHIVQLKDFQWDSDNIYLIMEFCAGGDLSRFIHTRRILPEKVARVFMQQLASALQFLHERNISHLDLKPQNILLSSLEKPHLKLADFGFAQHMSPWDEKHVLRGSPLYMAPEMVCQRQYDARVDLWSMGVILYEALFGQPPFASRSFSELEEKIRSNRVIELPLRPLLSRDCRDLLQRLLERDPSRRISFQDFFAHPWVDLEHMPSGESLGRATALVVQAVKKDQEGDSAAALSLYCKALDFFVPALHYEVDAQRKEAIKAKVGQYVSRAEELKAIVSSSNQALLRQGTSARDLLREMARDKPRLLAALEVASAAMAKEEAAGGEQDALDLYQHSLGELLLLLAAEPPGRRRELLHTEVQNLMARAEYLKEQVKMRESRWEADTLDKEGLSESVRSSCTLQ", "assay": "Inhibition of ULK3 Lys1 labeling site in human Huh-7 cell lysate at 1 uM by KiNativ Profiling analysis relative to control", "format": "subcellular"}, "RAW": {"system": "RAW", "assay": "Inhibition of LPS induced p105 phosphorylation in mouse RAW cells preincubated for 1 hr followed by LPS stimulation and measured after 30 mins by Western blot analysis", "format": "functional, cell-based", "details": "dose 0.01-10 µM"}, "[4]": {"biological_target": "Tyrosine-protein kinase Fer (Homo sapiens, UniProt P16591)", "sequence (P16591 whole entry, looked up)": "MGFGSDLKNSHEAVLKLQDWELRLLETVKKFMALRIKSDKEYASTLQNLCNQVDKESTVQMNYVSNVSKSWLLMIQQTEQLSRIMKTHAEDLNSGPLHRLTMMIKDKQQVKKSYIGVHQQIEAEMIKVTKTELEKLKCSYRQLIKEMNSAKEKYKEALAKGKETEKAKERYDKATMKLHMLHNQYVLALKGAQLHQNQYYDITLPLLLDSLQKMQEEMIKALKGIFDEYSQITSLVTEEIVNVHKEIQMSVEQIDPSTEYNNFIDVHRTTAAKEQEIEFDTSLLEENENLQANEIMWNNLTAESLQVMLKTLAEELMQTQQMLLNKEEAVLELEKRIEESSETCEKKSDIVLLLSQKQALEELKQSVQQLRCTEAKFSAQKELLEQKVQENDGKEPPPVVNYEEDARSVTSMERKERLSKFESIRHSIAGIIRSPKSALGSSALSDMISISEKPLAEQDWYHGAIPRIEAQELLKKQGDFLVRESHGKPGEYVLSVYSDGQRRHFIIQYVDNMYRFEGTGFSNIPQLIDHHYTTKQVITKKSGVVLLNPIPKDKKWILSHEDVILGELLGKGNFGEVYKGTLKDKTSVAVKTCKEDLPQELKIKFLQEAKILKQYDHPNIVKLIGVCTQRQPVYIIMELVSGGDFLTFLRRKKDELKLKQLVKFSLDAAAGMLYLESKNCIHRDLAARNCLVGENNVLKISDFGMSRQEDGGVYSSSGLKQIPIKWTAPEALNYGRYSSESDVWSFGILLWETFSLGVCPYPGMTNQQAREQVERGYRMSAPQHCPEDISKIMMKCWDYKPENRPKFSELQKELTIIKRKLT", "assay": "Inhibition of FER Lys1 labeling site harbouring DKTSVAVKTCKEDLPQELK in human A-375 cells at 0.05 uM by KiNativ Profiling analysis relative to control", "format": "cell-based"}, "[5]": {"biological_target": "T2, Serine/threonine-protein kinase Chk1 (Homo sapiens) (UniProt O14757)", "T2 sequence (whole entry)": "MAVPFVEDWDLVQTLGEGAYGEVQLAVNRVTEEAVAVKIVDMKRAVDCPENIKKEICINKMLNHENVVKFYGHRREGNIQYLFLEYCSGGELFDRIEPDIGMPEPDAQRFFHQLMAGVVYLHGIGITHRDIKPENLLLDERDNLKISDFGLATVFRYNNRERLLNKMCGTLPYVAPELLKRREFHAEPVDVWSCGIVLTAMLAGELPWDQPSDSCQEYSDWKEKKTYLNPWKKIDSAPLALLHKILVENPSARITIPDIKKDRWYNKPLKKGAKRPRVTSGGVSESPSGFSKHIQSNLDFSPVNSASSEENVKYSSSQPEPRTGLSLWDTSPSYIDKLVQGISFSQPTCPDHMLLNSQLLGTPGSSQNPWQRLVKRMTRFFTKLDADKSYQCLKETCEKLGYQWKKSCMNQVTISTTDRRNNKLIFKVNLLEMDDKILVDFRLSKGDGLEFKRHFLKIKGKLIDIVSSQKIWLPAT", "assay": "Inhibition of CHK1 in human Huh-7 cells at 10 uM by KiNativ Profiling analysis relative to control", "format": "cell-based"}, "[6]": {"biological_target": "Ribosomal protein S6 kinase alpha-1 (Homo sapiens) (UniProt Q15418)", "sequence (Q15418 whole entry, the tested form may be a part)": "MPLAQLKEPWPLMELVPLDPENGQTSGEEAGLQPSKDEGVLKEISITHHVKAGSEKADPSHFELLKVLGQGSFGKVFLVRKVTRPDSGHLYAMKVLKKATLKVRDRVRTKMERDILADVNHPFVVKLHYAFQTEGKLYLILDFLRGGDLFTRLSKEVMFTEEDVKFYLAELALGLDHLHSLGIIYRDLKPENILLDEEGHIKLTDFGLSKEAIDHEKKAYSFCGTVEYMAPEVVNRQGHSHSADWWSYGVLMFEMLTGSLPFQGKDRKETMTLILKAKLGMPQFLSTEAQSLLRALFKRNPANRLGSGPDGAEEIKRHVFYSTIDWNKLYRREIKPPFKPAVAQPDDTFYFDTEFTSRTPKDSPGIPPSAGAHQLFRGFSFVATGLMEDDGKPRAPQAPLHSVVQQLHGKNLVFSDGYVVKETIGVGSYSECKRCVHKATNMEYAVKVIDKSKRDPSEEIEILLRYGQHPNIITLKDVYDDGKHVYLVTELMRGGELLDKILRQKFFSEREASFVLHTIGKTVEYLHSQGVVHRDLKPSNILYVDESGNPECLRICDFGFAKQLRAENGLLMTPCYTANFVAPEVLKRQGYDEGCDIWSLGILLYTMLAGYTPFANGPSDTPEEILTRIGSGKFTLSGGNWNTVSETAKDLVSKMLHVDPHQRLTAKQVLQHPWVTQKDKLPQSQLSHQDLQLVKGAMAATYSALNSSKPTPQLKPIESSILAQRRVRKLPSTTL", "assay": "Inhibition of RSK1 Domain 2 K2 labeling site in human Huh-7 cells at 10 uM by KiNativ Profiling analysis relative to control", "format": "cell-based"}, "[7]": {"biological_target": "Cyclin-dependent kinase-like 1 (Homo sapiens) (UniProt Q00532)", "sequence (Q00532 whole entry)": "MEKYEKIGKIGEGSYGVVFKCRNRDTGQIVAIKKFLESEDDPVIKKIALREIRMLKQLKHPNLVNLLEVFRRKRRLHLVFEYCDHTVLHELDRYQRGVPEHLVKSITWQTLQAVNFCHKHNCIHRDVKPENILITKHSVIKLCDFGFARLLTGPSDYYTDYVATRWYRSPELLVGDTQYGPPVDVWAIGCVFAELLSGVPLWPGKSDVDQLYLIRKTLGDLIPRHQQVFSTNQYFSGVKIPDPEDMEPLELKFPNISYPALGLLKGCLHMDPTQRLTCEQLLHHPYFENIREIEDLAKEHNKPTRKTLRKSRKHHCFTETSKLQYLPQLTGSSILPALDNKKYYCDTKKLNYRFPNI", "assay": "Inhibition of CDKL1 (unknown origin) at 1 uM by Ambit Kinomescan binding assay relative to control; values are per cent of control"}, "[8]": {"system": "Mast/stem cell growth factor receptor Kit (Homo sapiens), P10721 [V559D,V654A]", "sequence (P10721 whole entry V559D/V654A)": "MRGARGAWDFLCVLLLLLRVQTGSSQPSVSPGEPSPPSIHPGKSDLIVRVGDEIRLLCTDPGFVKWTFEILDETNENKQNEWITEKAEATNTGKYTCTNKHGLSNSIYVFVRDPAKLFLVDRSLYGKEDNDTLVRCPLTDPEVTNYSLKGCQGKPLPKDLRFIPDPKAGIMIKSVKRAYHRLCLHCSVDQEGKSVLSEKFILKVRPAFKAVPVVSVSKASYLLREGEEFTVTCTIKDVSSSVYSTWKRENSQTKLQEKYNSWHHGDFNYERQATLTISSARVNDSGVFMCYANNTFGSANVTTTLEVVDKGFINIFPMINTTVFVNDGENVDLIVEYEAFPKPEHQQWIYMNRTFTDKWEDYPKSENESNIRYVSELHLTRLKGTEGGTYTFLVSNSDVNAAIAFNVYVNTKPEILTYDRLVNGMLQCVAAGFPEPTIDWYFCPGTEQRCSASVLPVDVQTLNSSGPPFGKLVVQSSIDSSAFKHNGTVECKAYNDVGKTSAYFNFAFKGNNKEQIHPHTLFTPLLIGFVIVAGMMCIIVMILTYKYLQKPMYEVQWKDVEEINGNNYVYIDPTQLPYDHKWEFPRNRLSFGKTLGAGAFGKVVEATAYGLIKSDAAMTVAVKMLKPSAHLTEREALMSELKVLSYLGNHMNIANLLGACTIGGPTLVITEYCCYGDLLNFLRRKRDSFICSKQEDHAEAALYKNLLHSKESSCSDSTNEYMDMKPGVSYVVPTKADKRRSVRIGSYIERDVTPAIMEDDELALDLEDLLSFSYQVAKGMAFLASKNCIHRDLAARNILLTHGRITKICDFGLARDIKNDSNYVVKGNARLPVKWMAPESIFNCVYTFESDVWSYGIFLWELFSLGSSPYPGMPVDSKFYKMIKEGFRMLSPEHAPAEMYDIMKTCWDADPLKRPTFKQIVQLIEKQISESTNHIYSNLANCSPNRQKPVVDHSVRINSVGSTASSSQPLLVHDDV", "assay": "Inhibition of KIT V559D/V654A mutant (unknown origin) at 1 uM by Ambit Kinomescan binding assay relative to control; values are per cent of control"}}, "data": [{"smiles": "CNc1cc(Oc2cc(C(=O)Nc3cc(N4CCN(C)CC4)cc(C(F)(F)F)c3)ccc2C)ncn1", "values": [{"measurement": "inhibition", "setting": "[1]", "result": -1.4, "unit": "%"}, {"measurement": "inhibition", "setting": "[2]", "result": 0.6, "unit": "%"}, {"measurement": "inhibition", "setting": "[3]", "result": -5.1, "unit": "%"}]}, {"smiles": "CCN1CCN(Cc2ccc(NC(=O)c3ccc(C)c(Oc4ccnc5[nH]ccc45)c3)cc2C(F)(F)F)CC1", "values": [{"measurement": "inhibition", "setting": "RAW", "result": "Dose-Dependent Effect"}, {"measurement": "inhibition", "setting": "[4]", "result": 62.8, "unit": "%"}, {"measurement": "inhibition", "setting": "[5]", "result": 12.3, "unit": "%"}, {"measurement": "inhibition", "setting": "[6]", "result": 8, "unit": "%"}]}, {"smiles": "CCN1CCN(Cc2ccc(NC(=O)c3ccc(C)c(/C=C/c4cnc5[nH]ccc5c4OC)c3)cc2C(F)(F)F)CC1", "values": [{"measurement": "residual activity", "setting": "[7]", "result": 100, "unit": "%"}, {"measurement": "residual activity", "setting": "[8]", "result": 7.1, "unit": "%"}]}]}
